According to ChEMBL document CHEMBL1146319, “Design, synthesis, and in vivo evaluation of oxamniquine methacrylate and acrylamide prodrugs” (2007):

Assays:
Type in all cases: functional
[1] = tested on: Schistosoma mansoni; test: Antiparasitic activity against Schistosoma mansoni BH cercareae infected Swiss mouse assessed as average number of eggs at 3 stage after 10 days by oogram test
[2] = tested on: Schistosoma mansoni; test: Antiparasitic activity against Schistosoma mansoni BH cercareae infected Swiss mouse assessed as average number of eggs at 1 stage after 20 days by oogram test
[3] = tested on: Schistosoma mansoni; test: Antiparasitic activity against Schistosoma mansoni BH cercareae infected Swiss mouse assessed as average number of eggs at 2 stage after 20 days by oogram test
[4] = tested on: Schistosoma mansoni; test: Antiparasitic activity against Schistosoma mansoni BH cercareae infected Swiss mouse assessed as average number of eggs at 3 stage after 20 days by oogram test
[5] = tested on: Schistosoma mansoni; test: Antiparasitic activity against Schistosoma mansoni BH cercareae infected Swiss mouse assessed as average number of eggs at 1 stage after 10 days by oogram test
[6] = tested on: Schistosoma mansoni; test: Antiparasitic activity against Schistosoma mansoni BH cercareae infected Swiss mouse assessed as average number of eggs at 2 stage after 10 days by oogram test
[7] = tested on: Schistosoma mansoni; test: Antiparasitic activity against Schistosoma mansoni BH cercareae infected Swiss mouse assessed as total number of worms after 10 days by mesenteric veins perfusion technique
[8] = tested on: Schistosoma mansoni; test: Antiparasitic activity against Schistosoma mansoni BH cercareae infected Swiss mouse as total numbers of worms after 20 days by mesenteric veins perfusion technique

Row | Structure (SMILES) | Activity [1] | Activity [2] | Activity [3] | Activity [4] | Activity [5] | Activity [6] | Activity [7] | Activity [8]
1 | C=C(C)C(=O)OCc1cc2c(cc1[N+](=O)[O-])NC(CNC(C)C)CC2 (stereo unspecified) [OXAMNIQUINE ACRYLAMIDE] | 0.22 | 0 | 0.09 | 0.27 | 0 | 0.11 | 48 | 39
2 | CC(C)NCC1CCc2cc(CO)c([N+](=O)[O-])cc2N1 (stereo unspecified) [OXAMNIQUINE] | 0 | 0 | 0 | 0 | 0 | 0 | 3 | 13
